From patent US20120190564A1, “IDENTIFICATION OF PROTEIN BINDING SITES” (priority 2000, published 2012)
Ends that are not written are not given here. * marks the point of attachment. code + = amino-terminal bromo-group; nBu = CCCC*

Test system: anti-hTNF mAb 210
Experiment: Loop-loop 15-mer Matrix-scan of hTNF loop-peptides with mAb 210
Format: binding
Conditions: mAb 210 10 ug/ml
From the text: FIG. 11: Partial listing of peptides synthesized for loop-loop 15-mer Matrix-scan (1. +AVRSSSRTPSDKPVZ (SEQ ID NO: 3); 2. +VRSSSRTPSDKPVAZ (SEQ ID NO: 4); 3. +RSSSRTPSDKPVAHZ (SEQ ID NO: 5); 4. +SSSRTPSDKPVAHVZ (SEQ ID NO: 6); 5. +SSRTPSDKPVAHVVZ (SEQ ID NO: 7); 145. +FAESGQVYFGIIALZ (SEQ ID NO: 8)). All overlapping 15-mer loop-peptides covering the linear sequence of human tumor necrosis factor (hTNF) were synthesized, i.e., 145 hTNF loop-peptides in total. Z is a Cys-butyl. The amino terminus of all peptides contain a bromo-group (+).
FIG. 12: Configuration of the loop-loop 15-mer Matrix-scan. Schematic representation of matrix-scan with two loop segments. On the polymer surface, a mixture of cys (mmt) and cys (trt) are coupled. After 1% TFA, the cys (mmt) is deprotected. Then, in each square, one peptide is coupled via its N-terminal Bromo-group (+). Thus, peptide-1 in square-1, peptide-2 in square-2, etc., until peptide-145 in square-145. Then, the cys(trt) is deprotected with 95% TFA. Then, in each square, 145 different peptides are spotted simultaneously. Thus, peptide-1 to 145 in square-1, peptide 1-145 in square-2, etc., to peptide-1 to peptide-145 in square-145. Some extra squares were used for controls (linear epitopes).
FIG. 13: Result of the loop-loop 15-mer Matrix-scan with anti-hTNF mAb 210 (10 ug/ml). The result obtained with all 145 squares is plotted. […] On top of these and other squares spots are labeled as well (spots represent first peptide coupled next to second loop peptide). Identified squares and spots: Sq-65: +FKGQGCPSTHVLLTZ (SEQ ID NO: 9); Sq-66: +KGQGCPSTHVLLTHZ (SEQ ID NO: 10); Sq-67: +GQGCPSTHVLLTHTZ (SEQ ID NO: 11); Sq-87: +SYQTKVNLLSAIKSZ (SEQ ID NO: 12); Sq-88: +YQTKVNLLSAIKSPZ (SEQ ID NO: 13); Sq-94: +LLSAIKSPCQRETPZ (SEQ ID NO: 14); Sq-95: +LSAIKSPCQRETPEZ (SEQ ID NO: 15); Sq-127: +LEKGDRLSAEINRPZ (SEQ ID NO: 16); Sq-128: +EKGDRLSAEINRPDZ (SEQ ID NO: 17); Peptide-65: +FKGQGCPSTHVLLTZ (SEQ ID NO: 18); Peptide-70: +CPSTHVLLTHTISRZ (SEQ ID NO: 19); Peptide-72: +STHVLLTHTISRIAZ (SEQ ID NO: 20); Peptide-77: +LTHTISRIAVSYQTZ (SEQ ID NO: 21); Peptide-94: +LLSAIKSPCQRETPZ (SEQ ID NO: 22); Peptide-95: +LSAIKSPCQRETPEZ (SEQ ID NO: 23); Peptide-99: +KSPCQRETPEGAEAZ (SEQ ID NO: 24); Peptide-126: +QLEKGDRLSAEINRZ (SEQ ID NO: 25); Peptide-129: +KGDRLSAEINRPDYZ (SEQ ID NO: 26). The y-axis is in arbitrary units.
FIG. 14: Result of the loop-loop 15-mer Matrix-scan with mAb 210 (10 ug/m) with details of squares 65 and 127. Combination of loop-peptide 65 with loop-peptides 94, 95, combinations of loop-peptide 65 with 126-127, combinations of loop-peptide 127 with loop-peptides 65-77 and combinations of loop-peptide 127 with loop-peptides 94-96 are labeled. The y-axis is in arbitrary units.
The monoclonal antibody mAb-210 raised against hTNF was tested on linear and loop peptides (mAb-210 was bought from R&D Systems, MAB210, clone 1825.12, through ITK Diagnostics Uithoorn, The Netherlands). Firstly, it was tested in Pepscan on all overlapping linear 12-mers covering hTNF. […] Secondly, it was tested in Pepscan matrix-scan on double 15-mer loop-loop peptides (as described in FIGS. 3 and 4 and explained through FIGS. 11-12). Two loop-regions were labeled: peptide sequence GQGCPSTHVLLT (SEQ ID NO: 65) (squares 65 to 67) and SAIKSPCQRE (SEQ ID NO: 28) (squares 92 to 96) (FIGS. 13, 14). In addition in various squares loop peptide spots were identified corresponding to sequence GQGCPSTHVLLT (SEQ ID NO: 65) (spots 65-67); SAIKSPCQRE (SEQ ID NO: 28) (spots 92-96) and KGDRLSAEINR (SEQ ID NO: 29) (spots 126-129) (FIG. 14). These three regions, illustrated in FIG. 15 on the three-dimensional model of hTNF, are located on one side of the hTNF molecule and form one large discontinuous epitope region.

**Q.** For “+KGQGCPSTHVLLTHZ ({code +}-KGQGCPSTHVLLTHX; not fully specified (residue 15); printed as +KGQGCPSTHVLLTHZ; also: N- and C-terminal linker/cyclisation residues) [Sq-66, 15-mer hTNF loop-peptide]”, which “labeling of squares (firstly coupled loop-peptides)” value (from here on “labeling of squares”) is on record?
**A.** The value was “clearly labeled”.

**Q.** With “+EKGDRLSAEINRPDZ ({code +}-EKGDRLSAEINRPDX; not fully specified (residue 15); printed as +EKGDRLSAEINRPDZ; also: N- and C-terminal linker/cyclisation residues) [Sq-128, 15-mer hTNF loop-peptide]” as the substance, how does the “labeling of squares” value read?
**A.** Its value is “Identified”.

**Q.** Which “labeling of spots (first peptide coupled next to second loop peptide)” value (“labeling of spots” below) does the source give for “+LTHTISRIAVSYQTZ ({code +}-LTHTISRIAVSYQTX; not fully specified (residue 15); printed as +LTHTISRIAVSYQTZ; also: N- and C-terminal linker/cyclisation residues) [Peptide-77, 15-mer hTNF loop-peptide]” here?
**A.** The value was “Identified”.

**Q.** “+LEKGDRLSAEINRPZ ({code +}-LEKGDRLSAEINRPX; not fully specified (residue 15); printed as +LEKGDRLSAEINRPZ; also: N- and C-terminal linker/cyclisation residues) [Sq-127, 15-mer hTNF loop-peptide]” was tested. Which “labeling of squares” value did it give?
**A.** The value was “Identified”.

**Q.** With “+LSAIKSPCQRETPEZ ({code +}-LSAIKSPCQRETPEC(nBu)) [Peptide-95, 15-mer hTNF loop-peptide]” as the substance, how does the “labeling of spots” value read?
**A.** The value was “Identified”.

**Q.** And the “labeling of squares” value?
**A.** The value was “Identified”.

**Q.** For KGDRLSAEINR (Human), which “labeling of spots” value is on record?
**A.** Its value is “identified”.

**Q.** Which “labeling of squares” value does the source give for “+GQGCPSTHVLLTHTZ ({code +}-GQGCPSTHVLLTHTX; not fully specified (residue 15); printed as +GQGCPSTHVLLTHTZ; also: N- and C-terminal linker/cyclisation residues) [Sq-67, 15-mer hTNF loop-peptide]” here?
**A.** Its value is “clearly labeled”.

**Q.** “+LLSAIKSPCQRETPZ ({code +}-LLSAIKSPCQRETPC(nBu)) [Peptide-94, 15-mer hTNF loop-peptide]” was tested. Which “labeling of spots” value did it give?
**A.** Its value is “Identified”.

**Q.** And the “labeling of squares” value?
**A.** Its value is “Identified”.

**Q.** “+YQTKVNLLSAIKSPZ ({code +}-YQTKVNLLSAIKSPX; not fully specified (residue 15); printed as +YQTKVNLLSAIKSPZ; also: N- and C-terminal linker/cyclisation residues) [Sq-88, 15-mer hTNF loop-peptide]” was tested. Which “labeling of squares” value did it give?
**A.** Its value is “Identified”.

**Q.** With “+STHVLLTHTISRIAZ ({code +}-STHVLLTHTISRIAC(nBu)) [Peptide-72, 15-mer hTNF loop-peptide]” as the substance, how does the “labeling of spots” value read?
**A.** The value was “Identified”.

**Q.** For “+FKGQGCPSTHVLLTZ ({code +}-FKGQGCPSTHVLLTC(nBu)) [Peptide-65, 15-mer hTNF loop-peptide]”, which “labeling of spots” value is on record?
**A.** Its value is “Identified”.

**Q.** And the “labeling of squares” value?
**A.** The value was “Identified”.

**Q.** How did the “labeling of squares” value turn out when “+SYQTKVNLLSAIKSZ ({code +}-SYQTKVNLLSAIKSX; not fully specified (residue 15); printed as +SYQTKVNLLSAIKSZ; also: N- and C-terminal linker/cyclisation residues) [Sq-87, 15-mer hTNF loop-peptide]” was run?
**A.** The value was “Identified”.

**Q.** SAIKSPCQRE (Human) was tested. Which “labeling of spots” value did it give?
**A.** Its value is “identified”.

**Q.** What about the “labeling of squares” value of the same substance?
**A.** The value was “labeled”.

**Q.** How did the “labeling of spots” value turn out when “+KGDRLSAEINRPDYZ ({code +}-KGDRLSAEINRPDYC(nBu)) [Peptide-129, 15-mer hTNF loop-peptide]” was run?
**A.** The value was “Identified”.

**Q.** “+CPSTHVLLTHTISRZ ({code +}-CPSTHVLLTHTISRC(nBu)) [Peptide-70, 15-mer hTNF loop-peptide]” was tested. Which “labeling of spots” value did it give?
**A.** The value was “Identified”.

**Q.** Which “labeling of spots” value does the source give for “+QLEKGDRLSAEINRZ ({code +}-QLEKGDRLSAEINRC(nBu)) [Peptide-126, 15-mer hTNF loop-peptide]” here?
**A.** Its value is “Identified”.

**Q.** For “+KSPCQRETPEGAEAZ ({code +}-KSPCQRETPEGAEAX; not fully specified (residue 15); printed as +KSPCQRETPEGAEAZ; also: N- and C-terminal linker/cyclisation residues) [Peptide-99, 15-mer hTNF loop-peptide]”, which “labeling of spots” value is on record?
**A.** The value was “Identified”.

**Q.** With GQGCPSTHVLLT (Human) as the substance, how does the “labeling of spots” value read?
**A.** The value was “identified”.

**Q.** What about the “labeling of squares” value of the same substance?
**A.** The value was “labeled”.

**Q.** Which “labeling of spots” value does the source give for GQGCPSTHVLLTHTIS (Human) here?
**A.** Its value is “identified”.
